According to patent EP0470144B1, “BETA-HYDROXAMATE D-ASPARTIC ACID FOR TREATMENT OF VIRAL INFECTIONS AND TUMOURS” (priority 1989, dated 1990):

Experiments:
[1] = LD50 comparison of DAH and LAH; settings: in vivo
[2] = Tolerance to prolonged administration in mice (30 days); assay type: in vivo, souris; settings: 2 g/kg once daily or 1 g/kg twice daily
Source text: La tolérance à l'administration prolongée du DAH a été évaluée sur un groupe de 10 souris traitées pendant 30 jours à une injection quotidienne de 2 g/kg, et un groupe de 10 souris recevant pendant la même durée deux injections de 1 g/kg par jour. La tolérance a été excellente, sans signe clinique de toxicité, sans décès et avec un poids corporel restant dans un intervalle de +/- 10 % par rapport à un groupe contrôle de même âge et de même poids initial.

FLV = assay: Friend virus (FLV) replication in SC1 cell culture, reverse transcriptase activity in supernatants; assay type: cell-based; settings: SC1 cells infected with FLV
Source text: Des cultures de cellules SC1 traitées avec du polybrène ont été infectées avec du FLV (5 x 10⁵ particules infectantes pour 2 x 10⁵ cellules). Les cellules ont ensuite été mises en culture avec diverses concentrations de DAH et l'activité de réplication du FLV a été mesurée par dosage de l'activité transcriptase inverse apparaissant dans les surnageants de milieux de culture aux 2ème, 4ème et 6ème jour après l'infection.

[3] = test system: lymphocytes infectés par le virus du SIDA; assay: Growth and cell mortality of HIV-infected lymphocytes; assay type: cell-based; settings: 0,5-2 mM DAH; compared with uninfected lymphocytes
Source text: (§1) Cette inhibition est dose-dépendante. Les essais ont d'abord porté sur des lymphoytes de donneurs sains (Figures 1 et 2). On a pu mettre en évidence cette activité sur deux modèles de réplication du HIV : a) lymphocytes normaux infectés par le virus purifié et b) coculture des lymphocytes des malades du SIDA et de lymphocytes normaux. On a mesuré l'activité transcriptase inverse pendant 22 jours dans le surnageant de cultures cellulaires comme critère de prolifération virale. Le traitement avec le DAH a duré 72 heures de J₀ à J₃ de la manipulation (Figures 3, 4 et 5). […] Par contre, le DAH s'est montré plus toxique vis-à-vis des lymphocytes infectés par le virus du SIDA (Figures 6 et 7).
Effet du DAH sur le taux de croissance de lymphocytes infectés.
(●) absence de DAH (o) concentration en DAH = 0,5 mM (□) concentration en DAH = 1 mM (△) concentration en DAH = 1,5 mM (◇) concentration en DAH = 2 mM • . En abscisses : temps de culture (en jours) • . En ordonnées : taux de croissance.
Effet du DAH sur la mortalité cellulaire de lymphocytes infectés.
(●) absence de DAH (o) concentration en DAH = 0,5 mM (□) concentration en DAH = 1 mM (△) concentration en DAH = 1,5 mM (◇) concentration en DAH = 2 mM • . En abscisses : temps de culture (en jours) • . En ordonnées : proportion de cellules mortes (en %).

HIV = HIV replication in lymphocyte cultures (infected with purified virus, or coculture of AIDS patients' and normal lymphocytes), reverse transcriptase activity in supernatant; assay type: cell-based; settings: DAH treatment 72 h (J0 to J3), RT followed 22 days; dose-dependent; 0,5-2 mM
Source text: as §1
Effet du traitement par le DAH durant trois jours sur la production de transcriptase inverse virale par une coculture de lymphocytes des malades du SIDA et de lymphocytes normaux.
(●) absence de DAH (témoin) (o) concentration en DAH = 1 mM (□) concentration en DAH = 1,5 mM • . En abscisses : temps de croissance des cultures après inoculation du DAH (en jours) • . En ordonnées : activité transcriptase inverse (en CPM/million de cellules)
Effet du traitement par le DAH durant trois jours, sur la production de transcriptase inverse virale d'une culture de lymphocytes infectés par du virus purifié. […]

virus de Friend = assay: Survival of mice infected with Friend virus; assay type: in vivo, souris DBA/2
Source text: Dans d'autres essais, le virus a été maintenu par passages successif intrapéritonéaux chez la souris DBA/2. Cet entretien a été fait à partir de la rate de l'animal tous les 21 jours. L'activité du DAH a été évaluée en comparant les durées de survie des animaux à qui est injecté le virus, avec ou sans DAH. Le traitement a commencé trois jours après l'infection virale car on considère qu'il faut ce laps de temps pour qu'il y ait des séquences du virus dans le génome des précurseurs érythroïdes de la souris infectée. Après avoir fait varier le nombre d'injections journalières et la durée du traitement pour une dose donnée, il a été établi que 3 injections de 1g/kg/dose de DAH durant les 10 premiers jours et 2 injections de 1g/kg/dose de DAH pendant les 20 jours suivants, produisent un T/C de 239 %. Les résultats sont rapportés dans le tableau suivant : Tableau 2

leucémie P388 = assay: Antitumour activity in the P388 leukaemia model, survival; assay type: in vivo, souris B6D2F1; settings: for Nombre d'animaux survivants: at 30 days
Source text: L'activité antitumorale du DAH a été aussi étudiée sur deux autres modèles murins : le lymphome L5178Y et la leucémie P388.
Les cellules de la leucémie P388 sont maintenues par passage intrapéritonéaux chez la souris DBA/2 et injectées, pour les essais, à la dose de […] par souris sur la souris B6D2F1.

SMILES: N[C@@H](CC(=O)NO)C(=O)O [DAH, D-acide aspartique β-hydroxamate]
- DL 50 % [1]: 10 g/kg
- poids corporel, intervalle (+/-) par rapport à un groupe contrôle [2]: ≤ 10%
- tolérance à l'administration prolongée ([2]; no clinical sign of toxicity, no death): excellente
- activité transcriptase inverse abaissée (FLV; DAH 0,2 mM): ~70%
- activité transcriptase inverse abaissée (FLV; DAH 0,5 mM): 80%
- activité transcriptase inverse abaissée (FLV; DAH 1 mM): 90%
- toxicité vis-à-vis des lymphocytes infectés par le virus du SIDA [3]: plus toxique
- multiplication virale du HIV (activité transcriptase inverse) (HIV): inhibe de manière totale
- Nombre d'animaux survivants (virus de Friend; 1 g/kg x 3/j J 1-10 then x 2/j J 11-30): 5/10
- T/Cx100 (virus de Friend; 1 g/kg x 3/j J 1-10 then x 2/j J 11-30, T/C = survival time treated/controls): 239,86%
- Nombre d'animaux survivants (virus de Friend; 1 g/kg x 3/j, J 1-10): 0/10
- T/Cx100 (virus de Friend; 1 g/kg x 3/j, J 1-10): 193%
- T/Cx100 (leucémie P388; 1,5 g/kg x4/j, days 1,2,3): 155%
- T/Cx100 (leucémie P388; 1,5 g/kg x 4/j, days 1,2,3,4,5): 190%
- Nombre d'animaux survivants (leucémie P388; 1,5 g/kg x 4/j, days 1,2,3,4,5): 0/5
- Nombre d'animaux survivants (leucémie P388; 1,5 g/kg x4/j, days 1,2,3): 0/5
